Laboratory results taken from US20240325433A1, “MOLECULAR ASSOCIATION OF BILE ACID OR BILE SALT AND PHARMACEUTICAL COMPOSITION COMPRISING SAME FOR LOCALLY REDUCING FAT” (SCAI THERAPEUTICS CO., LTD., priority 2021, published 2024).

Experiments:
3T3-L1 preadipocytes = assay: Preadipocyte cytotoxicity (cell counting kit-8); assay type: cell-based; conditions: treated 4 hours
Description: 3T3-L1 preadipocytes were inoculated into a 96 well plate at 5×10^3 per well, grown in medium (high glucose DMEM, 10% bovine calf serum, 1% penicillin/streptomycin) for 16 hours. The drug was prepared to contain 0.04% and 0.08%, respectively, and then treated for 4 hours. After adding 10 μl of Dojingo CK04-11 cell counting kit-8 to each well according to the manual, reacting for 2 hours, the absorbance at 450 nm was measured with a spectrophotometer to compare preadipocyte cytotoxicity.

[1] = SD rat skin penetration test: DCA distribution in subcutaneous tissue, skin and plasma; set-up: species or system SD rats; conditions: in vivo, sc
Description: The interscapular region (back of the neck near the ear) of 10-week-old SD rats (280-350 g) with sufficient subcutaneous adipose tissue was shaved and anesthetized.

[2] = system: dermis white adipose tissue; assay: SD rat skin penetration test: histological analysis (H&E, Masson's trichome staining); assay type: in vivo, SD rats; conditions: 1%, 500 μL subcutaneous injection
Description: The interscapular region (back of the neck near the ear) of 10-week-old SD rats (280-350 g) with sufficient subcutaneous adipose tissue was shaved and anesthetized. […].
Then, tissues (skin, subcutaneous tissue) of the interscapular region were collected, fixed, and subjected to H&E staining and Masson's trichome staining. Tissue changes were investigated through microscopic observation.

[3] = cited from earlier work

amount of DCA in subcutaneous tissue [1]: gradually decreased
Compound: C[C@H](CCC(=O)O)[C@H]1CC[C@H]2[C@@H]3CC[C@@H]4C[C@H](O)CC[C@]4(C)[C@H]3C[C@H](O)[C@]12C [deoxycholic acid]
preadipocyte cytotoxicity (comparison between materials) (3T3-L1 preadipocytes; 0.04%): the same
survival rate of preadipocytes (3T3-L1 preadipocytes; 0.08%, absorbance 450 nm): 24.6%
H&E staining: tissue change [2]: severe tissue damage was observed
Masson's trichome staining: tissue change [2]: hematoma and edema occurred in the tissue
solubility in water [3]: 0.024%
